Test results taken from patent publication US9474744B2, “Beta-lactam compounds for treating diabetes” (STEM CELL MEDICINE LTD., priority 2011, dated 2016).

Assays:
CD4+ human T cells = test: Human Autoimmune and Inflammatory Response Gene Array, anti-CD3-stimulated T cells with or without antibiotic; assay type: cell-based; settings: 120 min anti-CD3; for % increase by Amp: ampicillin 50 μg/ml
Protocol: T cells were purified from the peripheral bloods of healthy human donors (Blood Bank, Sheba Medical center). The whole blood was incubated (20 min, 22° C.) with RosetteSep™ human T cell enrichment mixture (StemCell Technologies, Vancouver, Canada). The remaining unsedimented cells were then loaded onto lymphocyte separation medium (ICN Biomedicals, Irvine, Calif.), isolated by density centrifugation, and washed with PBS. […] In a second round of purification, CD3^+ T cells were labeled for selection with a magnetically coupled mAb against CD4 (Miltenyi Biotec, Auburn, Calif.).
Human CD4 T cells were isolated as described, and incubated in 24 well plates (Nunc), 4×10^6 cells/ml with plate bound anti-human CD3 (OKT3) at 2 μg/ml. The stimulation was performed in RPMI medium supplemented with 0.1% BSA. […] RNA was extracted from samples and used to prepare probes for gene array in accord with the manufacturer's instructions (SuperArray Bioscience, Frederick, Md.). Adequate labeling of the probes was tested before hybridization. Three healthy donors were tested in stimulation with cefuroxime. The membranes were analyzed online with the Image Data Acquisition and Expression Analysis (SuperArray Bioscience).
The Human Autoimmune and Inflammatory Response Gene Array (SuperArray Bioscience corporation, Frederick, Md., USA) was used for analysis of gene expression by the T cells. This array contains 367 genes including cytokines, chemokines and their receptors, transcription factors and signaling proteins. […] Analysis of the results was performed using the GEArray analysis program. […] To verify the results detected by the gene array study, a panel of six genes was designed and tested by real-time PCR: CCR4, ACVR2, JAK1, STAT4, TLR2 and NFKBIE. The cDNA that was used was prepared from the same RNA used for the gene array experiment.

[1] = tested on: encephalitogenic BP10 line; test: Adoptive EAE: BP10 T-cell line stimulated in vitro with test substance, then injected into naive rats; assay type: in vivo, rat; settings: BP10 line stimulated 3 days with MBP in presence of 50 μg/ml antibiotic; 10^7 cells per rat
Protocol: Antigen-specific T-cell lines were established from lymph node cells that had been stimulated with myelin basic protein (MBP; 10 μg/ml) for 3 days in stimulation medium as described below. Following stimulation, the T-cell blasts were isolated on LYMPHOPREP™ (Nycomed Pharma, Oslo, Norway) and seeded in propagation medium. Propagation medium was identical to stimulation medium without autologous serum, but supplemented with fetal calf serum 10% and T-cell growth factors from the supernatant of Con A stimulated spleen cells 10% (Mor et al. (1990) J Clin Invest, 85, 1594-1598). Animals were injected intra-peritoneally with 107 MBP-stimulated T cells, following 6-8 cycles of in vitro stimulations. It is known that MBP-reactive lines undergo a reduction in pathogenicity after 6 or more in vitro stimulations. In some experiments the BP10 line was stimulated with phorbol myristate acetate (PMA; 50 ng/ml) and ionomycin (500 ng/ml) for 3 days in stimulation medium, without antigen-presenting cells.
Active EAE was induced by subcutaneous injection of 25 μg guinea-pig MBP (GpMBP) in complete Freund's adjuvant (CFA). […] Adoptive EAE was transferred by intra-peritoneal injection of guinea-pig MBP-activated cells of the BP10 line as described in Mor et al. (1993) J Clin Invest, 92, 2199-2206. […] Clinical scoring was: +1, paralysis of tail; +1.5, paresis of posterior paws and ataxia; +2, paraplegia; +3, paralysis extending to thoracic spine; +4, a moribund state.
Treatment with cefuroxime in vivo could affect many different host agents involved in EAE or AA as well as influencing the rats' bacterial flora. To test whether the antibiotic might directly modify the behavior of effector T cells, an encephalitogenic T-cell line was stimulated in the presence or absence of cefuroxime in vitro. The weakly encephalitogenic BP10 line was used, and was stimulated for 3 days with MBP in the presence or absence of cefuroxime (50 μg/ml). The activated T cells were then washed to remove the antibiotic, the T cells were injected intra-peritoneally into naïve recipient rats (10^7 per rat), and EAE was scored. The BP10 line at later stimulations was used, when its pathogenic potential is reduced, allowing to detect both suppression and enhancement of disease. […] To rule out antigen presenting cells (APC) as the target of the beta-lactam antibiotic, the encephalitogenic BP10 line was stimulated without APC using PMA (50 ng/ml) and Ionomycin (500 ng/ml) in the presence or absence of cefuroxime.
Additional beta-lactam antibiotics were tested for their effect on the adoptive transfer of EAE.
A control group was injected with the untreated line.

CC1(C)S[C@@H]2[C@H](NC(=O)[C@H](N)c3ccccc3)C(=O)N2[C@H]1C(=O)O [ampicillin]
number of the 57 cefuroxime-down-regulated genes that were up-regulated (CD4+ human T cells; 50 μg/ml): 56 genes | % increase by Amp (CD4+ human T cells; gene ACTB): +196% | % increase by Amp (CD4+ human T cells; gene ACVR1, A low expression): +53% | % increase by Amp (CD4+ human T cells; gene ACVR2, A low expression): +85% | % increase by Amp (CD4+ human T cells; gene CCL5): +25% | % increase by Amp (CD4+ human T cells; gene CCL11): +107% | % increase by Amp (CD4+ human T cells; gene CCR4): +31% | % increase by Amp (CD4+ human T cells; gene CCR6): +83% | % increase by Amp (CD4+ human T cells; gene CCR7): +43% | % increase by Amp (CD4+ human T cells; gene CD28): +175% | % increase by Amp (CD4+ human T cells; gene CD40LG): +67% | % increase by Amp (CD4+ human T cells; gene CREBBP): +49% | % increase by Amp (CD4+ human T cells; gene CXCL10): +25% | % increase by Amp (CD4+ human T cells; gene EGR3): −25% | % increase by Amp (CD4+ human T cells; gene GFI1): +10% | % increase by Amp (CD4+ human T cells; gene HRAS, A low expression): −12% | % increase by Amp (CD4+ human T cells; gene IL1B, A low expression): +64% | % increase by Amp (CD4+ human T cells; gene IL2RB): +93% | % increase by Amp (CD4+ human T cells; gene IL2RG, A low expression): +78% | % increase by Amp (CD4+ human T cells; gene IL9R): No change | % increase by Amp (CD4+ human T cells; gene IL16, A low expression): +14% | % increase by Amp (CD4+ human T cells; gene IRAK1): +171% | % increase by Amp (CD4+ human T cells; gene JAK1): +161% | % increase by Amp (CD4+ human T cells; gene JUN): +65% | % increase by Amp (CD4+ human T cells; gene LTA): +48.5% | % increase by Amp (CD4+ human T cells; gene MAP2K4): +150% | % increase by Amp (CD4+ human T cells; gene MAP3K1, A low expression): +63% | % increase by Amp (CD4+ human T cells; gene MAP3K2): +93% | % increase by Amp (CD4+ human T cells; gene MAP3K7): +124% | % increase by Amp (CD4+ human T cells; gene MAPK9): +46% | % increase by Amp (CD4+ human T cells; gene NFKB1): +31% | % increase by Amp (CD4+ human T cells; gene NFKB2): +195% | % increase by Amp (CD4+ human T cells; gene NFKBIE): +132% | % increase by Amp (CD4+ human T cells; gene NFKBIL1): +191% | % increase by Amp (CD4+ human T cells; gene PAK1): +111% | % increase by Amp (CD4+ human T cells; gene PIN1): +105% | % increase by Amp (CD4+ human T cells; gene RANBP5): +108% | % increase by Amp (CD4+ human T cells; gene REL): +132% | % increase by Amp (CD4+ human T cells; gene RFX5): +137% | % increase by Amp (CD4+ human T cells; gene RFXAP): +131% | % increase by Amp (CD4+ human T cells; gene SDF2): +71% | % increase by Amp (CD4+ human T cells; gene SELL): +124% | % increase by Amp (CD4+ human T cells; gene SMAD4): +85% | % increase by Amp (CD4+ human T cells; gene SMAD7, A low expression): +34% | % increase by Amp (CD4+ human T cells; gene SP3): +47% | % increase by Amp (CD4+ human T cells; gene SRF): +58% | % increase by Amp (CD4+ human T cells; gene STAT1): +85% | % increase by Amp (CD4+ human T cells; gene STAT4): +11% | % increase by Amp (CD4+ human T cells; gene STAT6): no change | % increase by Amp (CD4+ human T cells; gene TGFBR3): +139% | % increase by Amp (CD4+ human T cells; gene TGIF, A low expression): +72% | % increase by Amp (CD4+ human T cells; gene TLR2, A low expression): +419% | % increase by Amp (CD4+ human T cells; gene TNFRSF11, A low expression): +81% | % increase by Amp (CD4+ human T cells; gene TNFα): +39% | % increase by Amp (CD4+ human T cells; gene TRAF5, A low expression): +47% | % increase by Amp (CD4+ human T cells; gene TRAF6, A low expression): +39% | % increase by Amp (CD4+ human T cells; gene YY1): +152% | severity of adoptive EAE in recipient rats [1]: did not increase the severity of EAE
